Laboratory results from patent US20110160158A1, “METHODS OF TREATMENT OF BIPOLAR DISORDER” (REPLIGEN CORPORATION, priority 2008, published 2011).

Assays:
[1] = test system: patients with Bipolar I Disorder, Most Recent Episode Depressed; test: Same six-week study: Clinical Global Impression for bipolar disorder (CGI-BP-S / CGI-BP-C); format: in vivo, human; conditions: for Average CGI-C-BP (Depression) / Average CGI-C-BP (Overall): 7-point scale, 4 = no change, lower = improved
Excerpt: The CGI-BP scale is a modification of the clinical global impression for use in bipolar disorder as a global assessment of patient severity and change of status (Spearing et al., 1997, Psychiatry Res., 73:159-171). The CGI-BP-S rates the severity of the illness on a 7 point scale. The CGI-BP-C rates the change in the severity of disease compared to baseline. This also uses a 7 point scale, anchored by a score of 4 which correlates to no change since the initiation of treatment. Lower scores correspond to improvement, higher to worsening.
(§1) A six-week, double blind, placebo-controlled, dose-escalation study was performed to assess the safety and efficacy of uridine in bipolar I depression. Eight-four (84) patients of both sexes were enrolled at twelve sites, randomized on a 1:1 basis to receive either placebo or uridine. To decrease the probability of a false negative result, uridine or placebo were given as monotherapy, and no concurrent bipolar medications, including mood stabilizers, atypical antipsychotics, antidepressants, anticonvulsants or other psychotropic medications were allowed during the study. Patients taking such medications were tapered gradually during the 28 days prior to initiation of the trial. Patients were evaluated each week over the 6-week trial period, with an extensive intervention plan for any patient having exacerbation of bipolar or depressive symptoms. After the trial period, patients were eligible to initiate therapy for bipolar disease and a follow-up visit occurred at week ten.
Informed consent was provided by all patients.
Subjects in the uridine treatment group were given either 2 g per day (low dose) or 4 g per day (high dose) of uridine. Subjects in the placebo group were given tablets of identical size and appearance with identical dosing instructions.
A dose of 1 g orally twice daily (2 g/day) was chosen to initiate treatment, with an increase to 2 g orally twice daily (4 g/day) in the absence of clinical improvement. On Day 1, all patients received a single dose of either placebo or uridine (2 g). This loading dose was done in order to compare pharmacokinetics of uridine at study start and end. Beginning on Day 2, patients received either placebo and uridine at a dose of 2 g/day administered as 1 g orally twice daily (2 tablets twice daily) for one week. At the Day 8 visit, the dose was increased to 4 g/day administered as 2 g orally twice daily (4 tablets twice daily) if there had been no serious untoward drug-related adverse events, and if the subject had less than a 25% improvement on the MADRS from baseline (Day 1). Patients that remained on 2 g/day were increased to 4 g/day at a subsequent visit if the improvement from baseline on the MADRS was less than 25%. Likewise, subjects having adverse events at the high dose were decreased to the low dose at the discretion of the investigator. On Day 43, all patients received a single dose of either placebo or uridine administered as 2 g orally twice daily (4 tablets twice daily), regardless of dose regimen. This was the patients' last dose of study drug.
The CGI-BP is a clinical impression scale that has been adapted for bipolar disorder and is comprised of an overall score, a depression score and a mania score. The CGI in this study used the severity of disease (CGI-BP-S) at study day 1 as the anchor point and the change from baseline (CGI-BP-C) in subsequent evaluations. Each assessment was intended to measure the change from the study start. The severity of disease (baseline) was similar between groups (Uridine=4.48; Placebo=4.68, n.s.), which are similar in magnitude to published efficacy trials in bipolar I depression (Brown et al., 2006, J. Clin. Psychiatry, 67:1025-33; Calabrese et al., 1999, J. Clin. Psychiatry, 60:79-88; Thase et al., 2006, J. Clin. Psychiatry, 26:600-609; Tohen et al., 2003, Arch. Gen. Psychiatry, 60:1079-88; Goldberg et al., 2007, Am. J. Psychiatry, 164:1348-55; Nierenberg et al., 2006, Am. J. Psychiatry, 163:210-216). […]

[2] = test system: patients with Bipolar I Disorder, Most Recent Episode Depressed; format: in vivo, human
Description: The YMRS is an 11 item scale designed to measure core manic symptoms (Young et al., Br. J. Psychiatry, 133:429-435). A cumulative score of 15 or greater on the YMRS was considered evidence of a treatment emergent affective switch. The HAM-A scale is a measure of global anxiety, including cognitive and somatic symptoms.
as §1
Informed consent was provided by all patients. […]

[3] = test system: patients undergoing cancer chemotherapy; conditions: cited from earlier work

Question: For `O=c1ccn([C@@H]2O[C@H](CO)[C@@H](O)[C@H]2O)c(=O)[nH]1` [uridine], which “Change in CGI vs placebo, MERM analysis of the treatment period” value ([1]; CGI-BP-C overall, p=0.044) is on record?
Answer: significant difference

Question: What about the “Average CGI-C-BP (Depression)” value ([1]; Wk 1) of the same compound?
Answer: 3.05

Question: What about the “Average CGI-C-BP (Overall)” value ([1]; Wk 1) of the same compound?
Answer: 3.19

Question: And the “Average CGI-C-BP (Depression)” value ([1]; Wk 2)?
Answer: 2.72

Question: And the “Average CGI-C-BP (Overall)” value ([1]; Wk 2)?
Answer: 2.92

Question: And the “Average CGI-C-BP (Depression)” value ([1]; Wk 3)?
Answer: 2.31

Question: And the “Average CGI-C-BP (Overall)” value ([1]; Wk 3)?
Answer: 2.45

Question: And the “Average CGI-C-BP (Depression)” value ([1]; Wk 4)?
Answer: 2.10

Question: What about the “Average CGI-C-BP (Overall)” value ([1]; Wk 4) of the same compound?
Answer: 2.33

Question: And the “Average CGI-C-BP (Depression)” value ([1]; Wk 5)?
Answer: 2.14

Question: What about the “Average CGI-C-BP (Overall)” value ([1]; Wk 5) of the same compound?
Answer: 2.31

Question: What about the “Average CGI-C-BP (Depression)” value ([1]; Wk 6) of the same compound?
Answer: 2.03

Question: What about the “Average CGI-C-BP (Overall)” value ([1]; Wk 6) of the same compound?
Answer: 2.21

Question: What about the “Exacerbation of mean YMRS on treatment” value ([2]; in vivo) of the same compound?
Answer: did not exacerbate the mean YMRS

Question: And the “Change in YMRS from baseline in comparison to placebo, MERM” value ([2]; while on treatment, p=0.025)?
Answer: significant decrease

Question: And the “Main side effects seen with IV uridine” value [3]?
Answer: infusion site phlebitis and transient shivering and fever

Question: What about the “Sustained elevations in plasma uridine” value ([3]; intravenous, cancer chemotherapy context) of the same compound?
Answer: exceeding 2,000 μM
